Data reported in US10251395B2, “Substituted furano-/thienocycloalkylamino-2-pyrimidine derivatives and use thereof for controlling undesired plant growth” (Bayer CropScience Aktiengesellschaft, priority 2015, dated 2019).

Tests used:
[1] = system: Stellaria media; experiment: Post-emergence herbicidal effect; format: in vivo; settings: assessed visually after about 3 weeks vs untreated controls
Summary of the method: (§1)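 Sow in sandy loam; grow in greenhouse 2–3 wk; spray one-leaf plants with WP or EC suspension/emulsion (600–800 L/ha water, 0.2% wetter); hold ~3 wk under optimal conditions; rate visually vs untreated (0–100%).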

[2] = system: Echinochloa crus-galli; experiment: Post-emergence herbicidal effect; format: in vivo; settings: assessed visually after about 3 weeks vs untreated controls
Summary of the method: as §1

[3] = system: Setaria viridis; experiment: Post-emergence herbicidal effect; format: in vivo; settings: assessed visually after about 3 weeks vs untreated controls
Summary of the method: as §1

[4] = system: Ipomoea purpurea; experiment: Post-emergence herbicidal effect; format: in vivo; settings: 320 g/ha, assessed visually after about 3 weeks vs untreated controls
Summary of the method: as §1

[5] = system: Amaranthus retroflexus; experiment: Post-emergence herbicidal effect; format: in vivo; settings: assessed visually after about 3 weeks vs untreated controls
Summary of the method: as §1

[6] = system: Polygonum convolvulus; experiment: Post-emergence herbicidal effect; format: in vivo; settings: assessed visually after about 3 weeks vs untreated controls
Summary of the method: as §1

[7] = system: Viola tricolor; experiment: Post-emergence herbicidal effect; format: in vivo; settings: assessed visually after about 3 weeks vs untreated controls
Summary of the method: as §1

[8] = system: Avena fatua; experiment: Post-emergence herbicidal effect; format: in vivo; settings: 320 g/ha, assessed visually after about 3 weeks vs untreated controls
Summary of the method: as §1

[9] = system: Lolium multiflorum; experiment: Post-emergence herbicidal effect; format: in vivo; settings: 320 g/ha, assessed visually after about 3 weeks vs untreated controls
Summary of the method: as §1

[10] = system: Alopecurus myosuroides; experiment: Post-emergence herbicidal effect; format: in vivo; settings: 320 g/ha, assessed visually after about 3 weeks vs untreated controls
Summary of the method: as §1

[11] = system: Abutilon theophrasti; experiment: Post-emergence herbicidal effect; format: in vivo; settings: assessed visually after about 3 weeks vs untreated controls
Summary of the method: as §1

[12] = system: Matricaria inodora; experiment: Post-emergence herbicidal effect; format: in vivo; settings: assessed visually after about 3 weeks vs untreated controls
Summary of the method: as §1

[13] = system: Stellaria media; experiment: Pre-emergence herbicidal effect; format: in vivo; settings: scored visually after 3 weeks
Summary of the method: (§2)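 Pre-em soil-surface spray; sandy loam, seeds covered with soil. WP/EC, aq. suspension/emulsion, 600–800 L/ha, +0.2% wetting agent. GH 3 wk; visual % activity vs untreated (100% = dead).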

[14] = system: Echinochloa crus-galli; experiment: Pre-emergence herbicidal effect; format: in vivo; settings: scored visually after 3 weeks
Summary of the method: as §2

[15] = system: Setaria viridis; experiment: Pre-emergence herbicidal effect; format: in vivo; settings: scored visually after 3 weeks
Summary of the method: as §2

[16] = system: Veronica persica; experiment: Pre-emergence herbicidal effect; format: in vivo; settings: scored visually after 3 weeks
Summary of the method: as §2

[17] = system: Amaranthus retroflexus; experiment: Pre-emergence herbicidal effect; format: in vivo; settings: scored visually after 3 weeks
Summary of the method: as §2

[18] = system: Polygonum convolvulus; experiment: Pre-emergence herbicidal effect; format: in vivo; settings: scored visually after 3 weeks
Summary of the method: as §2

[19] = system: Viola tricolor; experiment: Pre-emergence herbicidal effect; format: in vivo; settings: scored visually after 3 weeks
Summary of the method: as §2

[20] = system: Avena fatua; experiment: Pre-emergence herbicidal effect; format: in vivo; settings: Dosage 320 g/ha, scored visually after 3 weeks
Summary of the method: as §2

[21] = system: Lolium multiflorum; experiment: Pre-emergence herbicidal effect; format: in vivo; settings: Dosage 320 g/ha, scored visually after 3 weeks
Summary of the method: as §2

[22] = system: Alopecurus myosuroides; experiment: Pre-emergence herbicidal effect; format: in vivo; settings: scored visually after 3 weeks
Summary of the method: as §2

[23] = system: Abutilon theophrasti; experiment: Pre-emergence herbicidal effect; format: in vivo; settings: Dosage 320 g/ha, scored visually after 3 weeks
Summary of the method: as §2

[24] = system: Matricaria inodora; experiment: Pre-emergence herbicidal effect; format: in vivo; settings: scored visually after 3 weeks
Summary of the method: as §2

[25] = logP (HCOOH); format: physicochemical; settings: HCOOH
Description: Table 2 (physicochemical characterization of selected synthesis examples)

## Nc1nc(NC2CCc3sc(Cl)cc32)ncc1C(F)(F)F (racemic) [compound 256]
[1]; 80 g/ha
  post-emergence efficacy STEME: 100%
[1]; 320 g/ha
  post-emergence efficacy STEME: 100%
[2]; 80 g/ha
  post-emergence efficacy ECHCG: 100%
[2]; 320 g/ha
  post-emergence efficacy ECHCG: 100%
[3]; 80 g/ha
  post-emergence efficacy SETVI: 90%
[3]; 320 g/ha
  post-emergence efficacy SETVI: 90%
[4]
  post-emergence efficacy PHBPU: 100%
[5]; 80 g/ha
  post-emergence efficacy AMARE: 100%
[5]; 320 g/ha
  post-emergence efficacy AMARE: 100%
[6]; 80 g/ha
  post-emergence efficacy POLCO: 90%
[6]; 320 g/ha
  post-emergence efficacy POLCO: 90%
[7]; 80 g/ha
  post-emergence efficacy VIOTR: 90%
[7]; 320 g/ha
  post-emergence efficacy VIOTR: 90%
[8]
  post-emergence efficacy AVEFA: 70%
[9]
  post-emergence efficacy LOLMU: 70%
[10]
  post-emergence efficacy ALOMY: 90%
[11]; 80 g/ha
  post-emergence efficacy ABUTH: 90%
[11]; 320 g/ha
  post-emergence efficacy ABUTH: 90%
[12]; 80 g/ha
  post-emergence efficacy MATIN: 100%
[12]; 320 g/ha
  post-emergence efficacy MATIN: 100%
[13]; Dosage 80 g/ha
  STEME pre-emergence efficacy (herbicidal activity): 100%
[13]; Dosage 320 g/ha
  STEME pre-emergence efficacy (herbicidal activity): 100%
[14]; Dosage 80 g/ha
  ECHCG pre-emergence efficacy (herbicidal activity): 100%
[14]; Dosage 320 g/ha
  ECHCG pre-emergence efficacy (herbicidal activity): 100%
[15]; Dosage 80 g/ha
  SETVI pre-emergence efficacy (herbicidal activity): 100%
[15]; Dosage 320 g/ha
  SETVI pre-emergence efficacy (herbicidal activity): 100%
[16]; Dosage 80 g/ha
  VERPE pre-emergence efficacy (herbicidal activity): 100%
[16]; Dosage 320 g/ha
  VERPE pre-emergence efficacy (herbicidal activity): 100%
[17]; Dosage 80 g/ha
  AMARE pre-emergence efficacy (herbicidal activity): 100%
[17]; Dosage 320 g/ha
  AMARE pre-emergence efficacy (herbicidal activity): 100%
[18]; Dosage 80 g/ha
  POLCO pre-emergence efficacy (herbicidal activity): 100%
[18]; Dosage 320 g/ha
  POLCO pre-emergence efficacy (herbicidal activity): 100%
[19]; Dosage 80 g/ha
  VIOTR pre-emergence efficacy (herbicidal activity): 100%
[19]; Dosage 320 g/ha
  VIOTR pre-emergence efficacy (herbicidal activity): 100%
[20]
  AVEFA pre-emergence efficacy (herbicidal activity): 100%
[21]
  LOLMU pre-emergence efficacy (herbicidal activity): 100%
[22]; Dosage 80 g/ha
  ALOMY pre-emergence efficacy (herbicidal activity): 60%
[22]; Dosage 320 g/ha
  ALOMY pre-emergence efficacy (herbicidal activity): 100%
[23]
  ABUTH pre-emergence efficacy (herbicidal activity): 100%
[24]; Dosage 80 g/ha
  MATIN pre-emergence efficacy (herbicidal activity): 100%
[24]; Dosage 320 g/ha
  MATIN pre-emergence efficacy (herbicidal activity): 100%
[25]
  logP (HCOOH): solid; logP (HCOOH): 2.30; 1H NMR (CDCl3, 400 MHZ, δ in ppm): 2.15 (m, 1H, 1H
